The values below come from US8728978B2, “Biocide compositions (IV)” (Cognis IP Management GmbH, priority 2009, dated 2014).

The nature of the data set: Solubility of biocides in different solvents at 25° C. The format is physicochemical. The protocol:
Solubility of two fungicides, one herbicide and one insecticide in different solvents at 25° C. was tested.

The mark [1] stands for this setting: solvent: C8-C10 fatty acid dimethylamide (Ex. C3).
Setting [2] is: solvent: Lactic acid dimethyl amide (Ex. C4).
Where [3] appears, read: solvent: Levulinic acid tetrahydrofurfuryl ester (Ex. 7).

On to `O=C(NC(=O)c1c(F)cccc1F)Nc1ccc(OC(F)(F)C(F)OC(F)(F)F)c(Cl)c1` (stereo not drawn) [Novaluron], for which the Solubility of biocides reads like this: under setting [1], 32 % b.w; under setting [2], 22 % b.w; under setting [3], 24 % b.w.
With `CCOc1cc(Oc2ccc(C(F)(F)F)cc2Cl)ccc1[N+](=O)[O-]` [Oxyfluorfen], the Solubility of biocides under setting [1] is 31 % b.w, the Solubility of biocides under setting [2] is recorded as 23 % b.w and the Solubility of biocides under setting [3] is 33 % b.w.
